In one data set the test system is HCV replicon. The data set is described as follows: microbe, parasite or virus in culture. The class given is cell-based, hepatitis C virus. The note with it: Hepatitis C virus, read-out: Replicon IC50 μM. In general terms: A replicon is a self-replicating genome or part of one, used to study replication in cells.
Data set [1] concerns cap-dependent translation (pLuc). The data set is described as follows: Western blot of Fluc reporter protein in pLuc cells. The data set is classed as cell-based, human. The note with it: 20 hours, data not shown. For orientation: In western blotting, separated proteins are transferred to a membrane and probed.

The compound `CCOc1ccc(-c2c(C#N)c3ccc(NC(=O)OC(C)(C)C)cc3n2CC)cc1` [Compound 832, [3-cyano-2-(4-ethoxy-phenyl)-1-ethyl-1H-indol-6-yl]-carbamic acid tert-butyl ester] registered a melting point of 206 to 207 °C. For the same compound, the IC50 with HCV replicon lay in the range of 0.5 to 2 µM.
`CCOc1ccc(-c2c(C#N)c3ccc(N)cc3n2CC)cc1` [Compound 833, 6-amino-2-(4-ethoxyphenyl)-1-ethyl-1H-indole-3-carbonitrile]: the melting point is 183 to 185 °C. Besides, the IC50 in the data set on HCV replicon is 0.5 to 2 µM.
The like results for `CCOc1ccc(-c2c(C#N)c3ccc(NS(=O)(=O)CC)cc3n2CC)cc1` [Compound 835, Ethanesulfonic acid [3-cyano-2-(4-ethoxyphenyl)-1-ethyl-1H-indol-6-yl]-amide] were, in that order, 178 to 179 °C and 0.5 to 2 µM.
`CCOC(=O)Nc1ccc2c(C#N)c(-c3ccc(OCC)cc3)n(CC)c2c1` [Compound 838, [3-cyano-2-(4-ethoxyphenyl)-1-ethyl-1H-indol-6-yl]-carbamic acid ethyl ester] returned a melting point of 193 to 194 °C. In addition, in the data set on HCV replicon, the 50% inhibitory concentration (IC50) is 0.5 to 2 µM.
The like results for `CCNC(=O)Nc1ccc2c(C#N)c(-c3ccc(OCC)cc3)n(CC)c2c1` [Compound 839, 1-[3-cyano-2-(4-ethoxyphenyl)-1-ethyl-1H-indol-6-yl]-3-ethyl-urea] were, in that order, 249 to 250 °C and more than 2 µM.
In turn, `CCn1c(N2CCN(S(=O)(=O)C3CC3)CC2)c(C#N)c2ccc(C(F)(F)F)cc21` [Compound 842, 2-[4-(cyclopropylsulfonyl)piperazin-1-yl]-1-ethyl-6-(trifluoromethyl)-1H-indole-3-carbonitrile] had a melting point of 170 to 171 °C. The 50% inhibitory concentration (IC50) with HCV replicon is more than 2 µM.
In the case of `COc1ccc(C[C@H](N)C(=O)N[C@H]2[C@@H](O)[C@H](n3cnc4c(N(C)C)ncnc43)O[C@@H]2CO)cc1` [puromycin], the “cap-dependent protein production (pLuc) in Western blot” value in data set [1] is reported as “inhibited”.

As a reminder, the IC50 is the concentration needed to halve the response being measured. What is called melting point is the temperature of the solid-liquid transition.
